According to ChEMBL document CHEMBL4507277:

How the values were obtained:
[1] = biological target: Serine/threonine-protein kinase Sgk1 (Homo sapiens) (UniProt O00141); conditions: Compound concentration 1000.0 nM
[2] = biological target: Serine/threonine-protein kinase SIK2 (Homo sapiens) (UniProt Q9H0K1); conditions: Compound concentration 1000.0 nM
[3] = biological target: Megakaryocyte-associated tyrosine-protein kinase (Homo sapiens) (UniProt P42679); conditions: Compound concentration 1000.0 nM
Sequence of Megakaryocyte-associated tyrosine-protein kinase (Homo sapiens) (P42679 whole entry): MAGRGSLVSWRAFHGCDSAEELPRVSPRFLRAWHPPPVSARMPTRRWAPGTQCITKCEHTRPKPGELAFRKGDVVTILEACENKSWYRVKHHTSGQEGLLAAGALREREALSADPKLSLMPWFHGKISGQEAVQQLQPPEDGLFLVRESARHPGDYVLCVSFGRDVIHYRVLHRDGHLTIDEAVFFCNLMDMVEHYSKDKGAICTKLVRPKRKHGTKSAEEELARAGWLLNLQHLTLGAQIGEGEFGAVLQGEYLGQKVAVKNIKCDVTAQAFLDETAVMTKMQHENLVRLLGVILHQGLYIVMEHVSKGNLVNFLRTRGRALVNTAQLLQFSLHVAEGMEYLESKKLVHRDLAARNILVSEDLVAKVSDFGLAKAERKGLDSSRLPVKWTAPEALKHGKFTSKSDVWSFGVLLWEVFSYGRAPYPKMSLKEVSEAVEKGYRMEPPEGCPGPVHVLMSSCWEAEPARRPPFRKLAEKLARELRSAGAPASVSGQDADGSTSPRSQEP

[4] = biological target: Serine/threonine-protein kinase MARK1 (Homo sapiens) (UniProt Q9P0L2); conditions: Compound concentration 1000.0 nM
[5] = biological target: Transient receptor potential cation channel subfamily M member 6 (Homo sapiens) (UniProt Q9BX84); conditions: Compound concentration 1000.0 nM
[6] = biological target: Receptor-type tyrosine-protein kinase FLT3 (Homo sapiens) (UniProt P36888); conditions: Compound concentration 1000.0 nM
[7] = biological target: Myosin-IIIa (Homo sapiens) (UniProt Q8NEV4); conditions: Compound concentration 1000.0 nM
[8] = tested on: Receptor-type tyrosine-protein kinase FLT3 (Homo sapiens), P36888 [D835H]; conditions: Compound concentration 1000.0 nM
[9] = biological target: cAMP-dependent protein kinase catalytic subunit beta (Homo sapiens) (UniProt P22694); conditions: Compound concentration 1000.0 nM
[10] = biological target: Serine/threonine-protein kinase Sgk3 (Homo sapiens) (UniProt Q96BR1); conditions: Compound concentration 1000.0 nM
[11] = biological target: Serine/threonine-protein kinase 4 (Homo sapiens) (UniProt Q13043); conditions: Compound concentration 1000.0 nM
[12] = biological target: Dual specificity tyrosine-phosphorylation-regulated kinase 1B (Homo sapiens) (UniProt Q9Y463); conditions: Compound concentration 1000.0 nM
Sequence of Dual specificity tyrosine-phosphorylation-regulated kinase 1B (Homo sapiens) (Q9Y463 whole entry, looked up): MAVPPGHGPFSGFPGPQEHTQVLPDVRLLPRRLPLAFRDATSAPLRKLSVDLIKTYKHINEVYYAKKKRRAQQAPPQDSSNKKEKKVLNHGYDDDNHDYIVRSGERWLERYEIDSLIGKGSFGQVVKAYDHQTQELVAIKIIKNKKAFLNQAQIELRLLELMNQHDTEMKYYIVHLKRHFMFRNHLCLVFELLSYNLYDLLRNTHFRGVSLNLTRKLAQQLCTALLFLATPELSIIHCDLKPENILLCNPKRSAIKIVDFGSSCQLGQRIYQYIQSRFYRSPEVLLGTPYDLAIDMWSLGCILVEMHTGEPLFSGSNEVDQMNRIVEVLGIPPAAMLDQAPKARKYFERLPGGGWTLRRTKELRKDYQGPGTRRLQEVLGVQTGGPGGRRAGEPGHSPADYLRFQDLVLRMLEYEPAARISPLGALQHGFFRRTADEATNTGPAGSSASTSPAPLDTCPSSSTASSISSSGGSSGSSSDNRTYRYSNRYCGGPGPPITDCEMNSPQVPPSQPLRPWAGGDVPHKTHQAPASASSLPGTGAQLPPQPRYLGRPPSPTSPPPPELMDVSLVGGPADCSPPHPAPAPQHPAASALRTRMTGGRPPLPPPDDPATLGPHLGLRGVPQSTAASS

[13] = tested on: Mast/stem cell growth factor receptor Kit (Homo sapiens), P10721 [D816V]; conditions: Compound concentration 1000.0 nM
[14] = biological target: Dual specificity mitogen-activated protein kinase kinase 4 (Homo sapiens) (UniProt P45985); conditions: Compound concentration 1000.0 nM
[15] = biological target: Rhodopsin kinase GRK1 (Homo sapiens) (UniProt Q15835); conditions: Compound concentration 1000.0 nM
[16] = tested on: Tyrosine-protein kinase ABL1 (Homo sapiens), P00519 [T315I]; conditions: Compound concentration 1000.0 nM
[17] = biological target: Calcium/calmodulin-dependent protein kinase type II subunit delta (Homo sapiens) (UniProt Q13557); conditions: Compound concentration 1000.0 nM
[18] = biological target: 5'-AMP-activated protein kinase catalytic subunit alpha-2 (Homo sapiens) (UniProt P54646); conditions: Compound concentration 1000.0 nM
Sequence of 5'-AMP-activated protein kinase catalytic subunit alpha-2 (Homo sapiens) (P54646 whole entry, looked up): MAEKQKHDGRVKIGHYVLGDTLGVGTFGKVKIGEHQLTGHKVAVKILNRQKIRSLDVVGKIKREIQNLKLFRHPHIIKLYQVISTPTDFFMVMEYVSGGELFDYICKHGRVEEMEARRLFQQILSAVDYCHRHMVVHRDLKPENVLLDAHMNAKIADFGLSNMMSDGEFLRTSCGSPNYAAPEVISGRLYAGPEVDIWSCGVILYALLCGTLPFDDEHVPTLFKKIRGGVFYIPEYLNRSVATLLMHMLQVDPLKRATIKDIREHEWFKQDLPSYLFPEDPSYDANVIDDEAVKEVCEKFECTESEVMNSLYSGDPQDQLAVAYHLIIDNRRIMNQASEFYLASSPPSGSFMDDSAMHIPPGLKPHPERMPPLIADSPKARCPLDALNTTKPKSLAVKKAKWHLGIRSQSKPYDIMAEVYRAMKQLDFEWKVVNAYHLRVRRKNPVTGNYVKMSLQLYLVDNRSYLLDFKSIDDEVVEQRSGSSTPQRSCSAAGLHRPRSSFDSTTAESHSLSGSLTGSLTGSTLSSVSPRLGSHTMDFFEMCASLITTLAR

[19] = biological target: Cyclin-dependent kinase 5 (Homo sapiens) (UniProt Q00535); conditions: Compound concentration 1000.0 nM
[20] = tested on: Receptor-type tyrosine-protein kinase FLT3 (Homo sapiens), P36888 [D835Y]; conditions: Compound concentration 1000.0 nM
[21] = biological target: Tyrosine-protein kinase CSK (Homo sapiens) (UniProt P41240); conditions: Compound concentration 1000.0 nM
[22] = biological target: Serine/threonine-protein kinase haspin (Homo sapiens) (UniProt Q8TF76); conditions: Compound concentration 1000.0 nM
[23] = biological target: Tyrosine-protein kinase Srms (Homo sapiens) (UniProt Q9H3Y6); conditions: Compound concentration 1000.0 nM
Sequence of Tyrosine-protein kinase Srms (Homo sapiens) (Q9H3Y6 whole entry): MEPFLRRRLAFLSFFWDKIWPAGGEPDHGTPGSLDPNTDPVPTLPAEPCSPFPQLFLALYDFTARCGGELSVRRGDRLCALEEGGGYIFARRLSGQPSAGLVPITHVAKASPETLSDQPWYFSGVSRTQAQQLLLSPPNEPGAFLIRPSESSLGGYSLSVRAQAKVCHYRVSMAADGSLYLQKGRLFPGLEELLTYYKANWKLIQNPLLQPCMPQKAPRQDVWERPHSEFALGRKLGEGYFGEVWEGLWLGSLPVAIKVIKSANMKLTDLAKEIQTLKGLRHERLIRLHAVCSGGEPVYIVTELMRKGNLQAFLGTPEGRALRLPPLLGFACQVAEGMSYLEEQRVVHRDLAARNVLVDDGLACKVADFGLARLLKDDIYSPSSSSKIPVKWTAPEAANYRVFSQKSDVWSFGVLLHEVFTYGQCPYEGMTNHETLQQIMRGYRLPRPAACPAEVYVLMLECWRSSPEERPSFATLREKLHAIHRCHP

[24] = biological target: Mitogen-activated protein kinase 1 (Homo sapiens) (UniProt P28482); conditions: Compound concentration 1000.0 nM
[25] = biological target: Serine/threonine-protein kinase MARK2 (Homo sapiens) (UniProt Q7KZI7); conditions: Compound concentration 1000.0 nM
Sequence of Serine/threonine-protein kinase MARK2 (Homo sapiens) (Q7KZI7 whole entry): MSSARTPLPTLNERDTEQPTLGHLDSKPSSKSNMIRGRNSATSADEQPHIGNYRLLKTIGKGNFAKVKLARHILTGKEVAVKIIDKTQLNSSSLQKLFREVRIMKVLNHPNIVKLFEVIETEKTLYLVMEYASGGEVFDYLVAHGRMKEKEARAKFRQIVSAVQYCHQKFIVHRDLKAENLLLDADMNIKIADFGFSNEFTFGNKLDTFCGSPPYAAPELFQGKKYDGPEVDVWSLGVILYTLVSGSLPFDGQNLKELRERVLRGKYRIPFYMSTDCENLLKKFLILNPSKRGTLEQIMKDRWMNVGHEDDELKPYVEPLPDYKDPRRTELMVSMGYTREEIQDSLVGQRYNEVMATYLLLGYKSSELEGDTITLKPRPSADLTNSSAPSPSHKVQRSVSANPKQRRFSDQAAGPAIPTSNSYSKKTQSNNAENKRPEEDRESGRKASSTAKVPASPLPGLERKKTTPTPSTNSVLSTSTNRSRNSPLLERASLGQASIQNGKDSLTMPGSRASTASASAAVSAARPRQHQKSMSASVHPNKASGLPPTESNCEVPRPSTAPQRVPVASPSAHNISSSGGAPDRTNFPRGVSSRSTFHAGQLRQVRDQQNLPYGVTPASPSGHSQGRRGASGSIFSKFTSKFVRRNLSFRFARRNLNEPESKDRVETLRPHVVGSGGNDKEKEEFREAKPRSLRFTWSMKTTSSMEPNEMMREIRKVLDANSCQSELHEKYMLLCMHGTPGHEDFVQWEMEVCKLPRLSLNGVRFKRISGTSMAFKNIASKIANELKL

[26] = biological target: Mitogen-activated protein kinase kinase kinase 3 (Homo sapiens) (UniProt Q99759); conditions: Compound concentration 1000.0 nM
Sequence of Mitogen-activated protein kinase kinase kinase 3 (Homo sapiens) (Q99759 whole entry): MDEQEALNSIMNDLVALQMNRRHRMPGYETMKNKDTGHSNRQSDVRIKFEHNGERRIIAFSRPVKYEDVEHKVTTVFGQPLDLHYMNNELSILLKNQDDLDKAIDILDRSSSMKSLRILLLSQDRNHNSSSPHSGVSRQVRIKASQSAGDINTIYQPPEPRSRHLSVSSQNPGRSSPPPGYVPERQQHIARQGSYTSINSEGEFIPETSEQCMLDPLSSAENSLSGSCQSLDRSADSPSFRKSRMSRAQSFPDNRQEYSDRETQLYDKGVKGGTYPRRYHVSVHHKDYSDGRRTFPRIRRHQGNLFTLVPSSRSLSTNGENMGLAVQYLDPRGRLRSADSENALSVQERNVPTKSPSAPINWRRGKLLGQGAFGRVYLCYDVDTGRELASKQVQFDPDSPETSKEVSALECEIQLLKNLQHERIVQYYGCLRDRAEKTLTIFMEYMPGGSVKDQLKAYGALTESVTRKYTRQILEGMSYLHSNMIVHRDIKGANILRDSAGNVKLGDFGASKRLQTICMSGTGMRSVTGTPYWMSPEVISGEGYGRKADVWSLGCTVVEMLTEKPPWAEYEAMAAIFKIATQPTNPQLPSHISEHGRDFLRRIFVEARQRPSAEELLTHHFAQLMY

[27] = biological target: Mitogen-activated protein kinase 7 (Homo sapiens) (UniProt Q13164); conditions: Compound concentration 1000.0 nM
[28] = biological target: Ribosomal protein S6 kinase alpha-6 (Homo sapiens) (UniProt Q9UK32); conditions: Compound concentration 1000.0 nM
[29] = biological target: T1, 5-hydroxytryptamine receptor 3A (Homo sapiens) (UniProt P46098); conditions: Compound concentration 10.0 uM
T1 sequence (whole entry): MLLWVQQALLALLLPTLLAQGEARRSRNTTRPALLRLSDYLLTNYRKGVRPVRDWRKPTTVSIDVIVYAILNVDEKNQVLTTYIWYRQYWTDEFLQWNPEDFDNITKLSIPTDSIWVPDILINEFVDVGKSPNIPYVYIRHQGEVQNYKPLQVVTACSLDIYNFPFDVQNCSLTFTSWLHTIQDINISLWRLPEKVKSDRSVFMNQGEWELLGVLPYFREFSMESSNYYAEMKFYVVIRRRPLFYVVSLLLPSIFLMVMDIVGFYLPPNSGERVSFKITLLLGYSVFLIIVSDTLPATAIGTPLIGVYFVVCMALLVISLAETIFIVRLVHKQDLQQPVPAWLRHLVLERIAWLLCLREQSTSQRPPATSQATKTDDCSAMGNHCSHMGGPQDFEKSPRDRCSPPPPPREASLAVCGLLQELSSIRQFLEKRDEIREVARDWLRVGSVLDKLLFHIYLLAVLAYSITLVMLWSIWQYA

[30] = tested on: ALK tyrosine kinase receptor (Homo sapiens), Q9UM73 [C1156Y]; conditions: Compound concentration 1000.0 nM
[31] = biological target: Myosin light chain kinase, smooth muscle (Homo sapiens) (UniProt Q15746); conditions: Compound concentration 1000.0 nM
[32] = biological target: MAP/microtubule affinity-regulating kinase 3 (Homo sapiens) (UniProt P27448); conditions: Compound concentration 1000.0 nM
[33] = biological target: Serine/threonine-protein kinase ICK (Homo sapiens) (UniProt Q9UPZ9); conditions: Compound concentration 1000.0 nM
[34] = biological target: Protein-tyrosine kinase 6 (Homo sapiens) (UniProt Q13882); conditions: Compound concentration 1000.0 nM
[35] = biological target: Discoidin domain-containing receptor 2 (Homo sapiens) (UniProt Q16832); conditions: Compound concentration 1000.0 nM
[36] = biological target: Phosphatidylinositol 4,5-bisphosphate 3-kinase catalytic subunit gamma isoform (Homo sapiens) (UniProt P48736); conditions: Compound concentration 1000.0 nM
Sequence of Phosphatidylinositol 4,5-bisphosphate 3-kinase catalytic subunit gamma isoform (Homo sapiens) (P48736 whole entry, looked up, canonical isoform): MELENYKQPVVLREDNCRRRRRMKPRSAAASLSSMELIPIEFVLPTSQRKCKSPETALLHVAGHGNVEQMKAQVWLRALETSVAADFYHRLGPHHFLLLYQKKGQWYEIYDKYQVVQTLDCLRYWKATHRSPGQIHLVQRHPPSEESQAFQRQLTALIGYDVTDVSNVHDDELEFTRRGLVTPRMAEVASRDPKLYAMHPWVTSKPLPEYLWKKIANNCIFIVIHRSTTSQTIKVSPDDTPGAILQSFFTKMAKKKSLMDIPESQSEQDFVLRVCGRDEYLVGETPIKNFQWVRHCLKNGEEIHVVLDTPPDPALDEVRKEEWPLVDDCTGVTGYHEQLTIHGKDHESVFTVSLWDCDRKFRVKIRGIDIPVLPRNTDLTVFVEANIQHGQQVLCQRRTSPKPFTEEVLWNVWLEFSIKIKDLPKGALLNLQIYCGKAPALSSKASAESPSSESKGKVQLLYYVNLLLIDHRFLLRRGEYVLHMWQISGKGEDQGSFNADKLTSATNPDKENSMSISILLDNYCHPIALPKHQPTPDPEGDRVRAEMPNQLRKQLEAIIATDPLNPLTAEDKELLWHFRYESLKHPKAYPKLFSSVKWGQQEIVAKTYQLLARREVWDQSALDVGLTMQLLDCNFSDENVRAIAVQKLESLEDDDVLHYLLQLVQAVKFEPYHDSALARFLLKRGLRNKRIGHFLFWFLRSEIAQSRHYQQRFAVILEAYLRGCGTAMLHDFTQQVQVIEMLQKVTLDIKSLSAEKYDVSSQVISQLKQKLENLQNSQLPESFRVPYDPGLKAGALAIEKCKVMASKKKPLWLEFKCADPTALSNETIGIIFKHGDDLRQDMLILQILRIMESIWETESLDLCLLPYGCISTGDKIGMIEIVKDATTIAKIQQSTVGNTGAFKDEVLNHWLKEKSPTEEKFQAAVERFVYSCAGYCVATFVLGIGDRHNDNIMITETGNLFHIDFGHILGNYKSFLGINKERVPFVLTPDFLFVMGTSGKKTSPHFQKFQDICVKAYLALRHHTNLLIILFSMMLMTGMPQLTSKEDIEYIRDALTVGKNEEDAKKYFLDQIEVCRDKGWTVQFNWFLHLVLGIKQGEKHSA

[37] = biological target: Cyclin-dependent kinase 4 (Homo sapiens) (UniProt P11802); conditions: Compound concentration 1000.0 nM
Sequence of Cyclin-dependent kinase 4 (Homo sapiens) (P11802 whole entry): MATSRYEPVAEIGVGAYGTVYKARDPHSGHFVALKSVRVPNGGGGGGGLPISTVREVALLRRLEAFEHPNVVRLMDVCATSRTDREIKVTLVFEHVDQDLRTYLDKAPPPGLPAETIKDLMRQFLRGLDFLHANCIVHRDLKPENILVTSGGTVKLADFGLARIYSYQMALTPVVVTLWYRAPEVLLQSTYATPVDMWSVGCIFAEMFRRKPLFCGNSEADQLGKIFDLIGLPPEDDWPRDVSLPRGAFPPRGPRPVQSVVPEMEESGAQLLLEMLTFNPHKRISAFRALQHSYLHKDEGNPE

[38] = biological target: Serine/threonine-protein kinase D1 (Homo sapiens) (UniProt Q15139); conditions: Compound concentration 1000.0 nM

CCS(=O)(=O)c1cc2cc(C[C@@](O)(CC(C)(C)c3ccc(F)cc3C(N)=O)C(F)(F)F)[nH]c2cn1
inactive: residual activity [1] 79% | residual activity [2] 100% | residual activity [3] 100% | residual activity [4] 100% | residual activity [5] 72% | residual activity [6] 100% | residual activity [7] 80% | residual activity [8] 100% | residual activity [9] 99% | residual activity [10] 79% | residual activity [11] 100% | residual activity [12] 100% | residual activity [13] 90% | residual activity [14] 100% | residual activity [15] 100% | residual activity [16] 67% | residual activity [17] 81% | residual activity [18] 100% | residual activity [19] 100% | residual activity [20] 99% | residual activity [21] 82% | residual activity [22] 80% | residual activity [23] 72% | residual activity [24] 94% | residual activity [25] 100% | residual activity [26] 90% | residual activity [27] 81% | residual activity [28] 100% | inhibition [29] 21.1% | residual activity [30] 100% | residual activity [31] 93% | residual activity [32] 100% | residual activity [33] 97% | residual activity [34] 97% | residual activity [35] 100% | residual activity [36] 78% | residual activity [37] 81% | residual activity [38] 100%

CCS(=O)(=O)c1cc2cc(C[C@](O)(CC(C)(C)c3ccc(F)cc3C(N)=O)C(F)(F)F)[nH]c2cn1
inactive: residual activity [1] 100% | residual activity [2] 100% | residual activity [3] 100% | residual activity [4] 100% | residual activity [5] 86% | residual activity [6] 85% | residual activity [7] 94% | residual activity [8] 100% | residual activity [9] 100% | residual activity [10] 89% | residual activity [11] 100% | residual activity [12] 88% | residual activity [13] 100% | residual activity [14] 100% | residual activity [15] 100% | residual activity [16] 100% | residual activity [17] 100% | residual activity [18] 97% | residual activity [19] 100% | residual activity [20] 100% | residual activity [21] 100% | residual activity [22] 100% | residual activity [23] 83% | residual activity [24] 100% | residual activity [25] 78% | residual activity [26] 92% | residual activity [27] 97% | residual activity [28] 82% | inhibition [29] 32.2% | residual activity [30] 96% | residual activity [31] 96% | residual activity [32] 100% | residual activity [33] 100% | residual activity [34] 100% | residual activity [35] 88% | residual activity [36] 80% | residual activity [37] 100% | residual activity [38] 100%
